Assay results reported in patent US8933022B2, “Methods and compositions for the treatment and prevention Hypoglycemia and related disorders” (JDS Therapeutics, LLC, priority 2011, dated 2015).
Marks after values point to notes of the source that are not given here.

How the values were obtained:
[1] = tested on: NFK (nuclear factor kappa B); assay: Brain NFK levels in type-1 diabetes induced rats; type: in vivo, Wistar rats; conditions: bands, STZ rats, n = 7; control = 100.00
Protocol: (§1) Forty-two Wistar rats were assigned to one of 6 experimental groups: 1) positive control: rats injected with saline 2) type-1 diabetes group: rats injected with streptozotocin (STZ, 65 mg/kg i.p.) to damage beta cells (n=35). Diabetic rats were then administered with a) none, b) Zn alone (6.23 μg ZnO), c) Cr alone (47.7 μg Cr-histidinate), d) Zn-insulin (6.23 μg ZnO+3 IU Ins/100 g BW), or e) Cr-insulin (47.7 μg Cr-histidinate+3 IU Ins/100 g BW), daily for 26 days (n=7 per subgroup). Body weights were measured at the beginning and end of the experiment.
(§2) Blood samples were collected on days—2 (beginning), 0 (induction), 4, 6, 12, and 26 for blood biochemistry. At the end of the experiment, rats were sacrificed for brain tissue GLUTs (1 and 3). Data were analyzed using one-way ANOVA with LSD option for mean comparison.

[2] = tested on: OCT-1 (organic cation transporter 1); assay: Kidney OCT-1 levels in type-1 diabetes induced rats; type: in vivo, Wistar rats; conditions: bands, STZ rats, n = 7; control = 100.00 (percentage of control)
[3] = Brain chromium levels in insulin-induced hypoglycemic rats; conditions: 15 U insulin/kg i.p., 110 μg/kg/day, one week, mean ± s.d.
Protocol: (§3) In order to evaluate chromium's potential protective effects preventing insulin-induced hypoglycemia, animals were administered insulin to induce hypoglycemia, and markers of hypoglycemic brain damage were compared in animals with and without administration of chromium.
(§4) Briefly, hypoglycemia was induced in Sprague-Dawley rats (males, 8-weeks old) by intraperitoneal injection of 15 U insulin/kg BW. The rats were separated into four groups of 15 rats each: (1) a control group not receiving insulin (“Control”); (2) a group not administered chromium (“Hypo”); (3) a group administered 110 μg/kg/day of chromium picolinate (CrPic); and, a group administered 110 μg/kg/day of chromium histidinate (CrHis). After one week of dosing, brains were removed from the sacrificed rats and analyzed for markers of hypoglycemic damage: GLUT-1; GLUT-3; Nrf2; GFAP; and HNE.

[4] = Serum glucose 0.5 hrs after insulin injection in insulin-induced hypoglycemic rats; type: in vivo, Sprague-Dawley rats; conditions: 15 U insulin/kg i.p., 110 μg/kg/day chromium complex, one week, mean ± s.d.
insulin = assay: Brain insulin levels in type-1 diabetes induced rats; type: in vivo, Wistar rats; conditions: bands, STZ rats, n = 7; control = 100.00
Protocol: as §1, §2

[5] = Blood biochemistry of type-1 diabetes induced rats at the end of the experiment; type: in vivo, Wistar rats; conditions: STZ rats, daily for 26 days
Protocol: as §1, §2

[6] = Serum and brain chromium in type-1 diabetes induced rats; conditions: STZ rats, n = 7; footnote: daily for 8 weeks
Protocol: as §1, §2

Nrf2 = assay: Hippocampus Nrf2 expression in insulin-induced hypoglycemic rats; conditions: 15 U insulin/kg i.p., 110 μg/kg/day, one week, mean ± s.d.
Protocol: as §3, §4

Tryptophan = assay: Brain tryptophan in type-1 diabetes induced rats; type: in vivo, Wistar rats; conditions: STZ rats, n = 7; footnote: daily for 8 weeks
[7] = Body weight of type-1 diabetes induced rats (Example 8); type: in vivo, Wistar rats; conditions: Example 8, STZ rats, n = 7; for Initial BW: before treatment; for BW Change / Final BW: daily for 26 days
Protocol: as §1, §2

GLUT-1 [8] = assay: Cerebral GLUT-1 expression in type-1 diabetes induced rats; type: in vivo, Wistar rats; conditions: STZ rats, daily for 26 days; control = 100.00
Protocol: as §1, §2

GLUT-3 [9] = assay: Brain GLUT-3 expression in insulin-induced hypoglycemic rats; conditions: 15 U insulin/kg i.p., 110 μg/kg/day, one week, mean ± s.d.
Protocol: as §3, §4

[10] = tested on: MRP2 (multidrug resistance protein 2); assay: Kidney MRP2 levels in type-1 diabetes induced rats; conditions: bands, STZ rats, n = 7; control = 100.00
Protocol: as §1, §2

[11] = tested on: NFK (nuclear factor kappa B); assay: Kidney NFK levels in type-1 diabetes induced rats; type: in vivo, Wistar rats; conditions: bands, STZ rats, n = 7; control = 100.00
GLUT-3 [12] = assay: Cerebral GLUT-3 expression in type-1 diabetes induced rats; type: in vivo, Wistar rats; conditions: STZ rats, daily for 26 days; control = 100.00
Protocol: Forty-two Wistar rats were assigned to one of 6 experimental groups: 1) positive control: rats injected with saline 2) type-1 diabetes group: rats injected with streptozotocin (STZ, 65 mg/kg i.p.) to damage beta cells (n=35). Diabetic rats were then administered with a) none, b) Zn alone (6.23 μg ZnO), c) Cr alone (47.7 μg Cr-histidinate), d) Zn-insulin (6.23 μg ZnO+3 IU Ins/100 g BW), or e) Cr-insulin (47.7 μg Cr-histidinate+3 IU Ins/100 g BW), daily for 26 days (n=7 per subgroup).
At the end of the experiment, rats were sacrificed for brain tissue GLUTs (1 and 3). Data were analyzed using one-way ANOVA with LSD option for mean comparison.

GFAP = assay: Hippocampus GFAP expression in insulin-induced hypoglycemic rats; conditions: 15 U insulin/kg i.p., 110 μg/kg/day, one week, mean ± s.d.
Protocol: as §3, §4

HNE = assay: Hippocampus HNE expression in insulin-induced hypoglycemic rats; conditions: 15 U insulin/kg i.p., 110 μg/kg/day, one week, mean ± s.d.
Protocol: as §3, §4

Serotonin = assay: Brain serotonin in type-1 diabetes induced rats; type: in vivo, Wistar rats; set-up: unit not given here; conditions: STZ rats, n = 7; footnote: daily for 8 weeks
GLUT-1 [13] = assay: Brain GLUT-1 expression in insulin-induced hypoglycemic rats; conditions: 15 U insulin/kg i.p., 110 μg/kg/day, one week, mean ± s.d.
Protocol: as §3, §4

OCT-2 = assay: Kidney OCT-2 levels in type-1 diabetes induced rats; type: in vivo, Wistar rats; conditions: bands, STZ rats, n = 7; control = 100.00
[14] = Glucose pattern before and after injection in type-1 diabetes induced rats; type: in vivo, Wistar rats; conditions: STZ rats; for Glucose, Day 4, After / Glucose, Day 6, After / Glucose, Day 12, After / Glucose, Day 21, After: after injection; for Glucose, Day 4, After / Glucose, Day 4, Before: no unit in table (mg/dl); for Glucose, Day 6, After / Glucose, Day 12, After / Glucose, Day 21, After / Glucose, Day 6, Before / Glucose, Day 12, Before / Glucose, Day 21, Before: no unit in table; for Glucose, Day 4, Before / Glucose, Day 6, Before / Glucose, Day 12, Before / Glucose, Day 21, Before: before injection
Protocol: as §1, §2

For chromium histidinate [CrHis], the Brain nfk [1] was 134.24 ± 4.10^b, the “Kidney oct1” value [2] was 50.90 ± 1.71^d and the “Brain Cr Levels” value [3] was 21.6 ± 1.7 ng/g. For the same molecule, the “Serum Glucose at 0.5 hrs” value [4] was 42.6 ± 6.8 mg/dL, the Brain ins (insulin) was 47.89 ± 4.67^c and the ALP [5] was 442 ± 13^bc U/L. The ALT [5] was 125 ± 12^bc U/L, the AST [5] was 291 ± 24^ab U/L and the Albumin [5] was 2.74 ± 0.06^ab g/dL. For the same molecule, the CK [5] was 6745 ± 934^b U/L, the Creatinine [5] was 0.90 ± 0.08^bc mg/dL and the Glucose [5] was 423 ± 15^bc mg/dL. The Insulin [5] was 22.0 ± 0.8^bc μU/mL, the K [5] was 5.57 ± 0.12^b mmol/L and the LDH [5] was 2367 ± 52^b U/L. For the same molecule, the Total protein [5] was 6.07 ± 0.12^b g/dL, the Urea [5] was 62.1 ± 2.5^bc mg/dL and the Uric acid [5] was 6.21 ± 0.57^b mg/dL. For the same molecule, the “Brain Cr” value [6] was 11.87 ± 0.89^c ng/g, the “Serum Cr” value [6] was 48.64 ± 2.70^c mcg/g and the “Hippocampus Nrf2 Expression” value (Nrf2) was 61.8 ± 1.4 % Control. The “Brain Tryptophan” value (Tryptophan) was 4.74 ± 0.36^d mcg/g, the “Initial BW” value [7] was 195.43 ± 5.94 g and the “BW Change” value [7] was −10.17 ± 3.94^bc %. For the same molecule, the “Final BW” value [7] was 176.57 ± 12.27^bc g, the “cerebral GLUT-1 expression” value (GLUT-1 [8]) was 53.81 ± 3.53^c and the “Cerebellum GLUT-3 Expression” value (GLUT-3 [9]) was 166.9 ± 2.2 % Control. The “Cortex GLUT-3 Expression” value (GLUT-3 [9]) was 287.5 ± 31.3 % Control, the “Hippocampus GLUT-3 Expression” value (GLUT-3 [9]) was 177.8 ± 4.7 % Control and the “Kidney mrp2” value [10] was 140.21 ± 2.05^b. For the same molecule, the Kidney nfk [11] was 118.86 ± 1.47^b, the “cerebral GLUT-3 expression” value (GLUT-3 [12]) was 49.41 ± 2.39^c and the “Hippocampus GFAP Expression” value (GFAP) was 204.9 ± 4.9 % Control. The “Hippocampus HNE Expression” value (HNE) was 140.1 ± 12.0 % Control, the “Brain Serotonin” value (Serotonin) was 512 ± 7 and the “Cerebellum GLUT-1 Expression” value (GLUT-1 [13]) was 83.0 ± 4.2 % Control. For the same molecule, the “Cortex GLUT-1 Expression” value (GLUT-1 [13]) was 99.9 ± 7.3 % Control, the “Hippocampus GLUT-1 Expression” value (GLUT-1 [13]) was 103.7 ± 2.8 % Control and the “Kidney oct2” value (OCT-2) was 53.50 ± 1.13^d. For the same molecule, the “Glucose, Day 4, After” value [14] was 237, the “Glucose, Day 6, After” value [14] was 349 and the “Glucose, Day 12, After” value [14] was 349. The “Glucose, Day 21, After” value [14] was 303, the “Glucose, Day 4, Before” value [14] was 403 and the “Glucose, Day 6, Before” value [14] was 330. The “Glucose, Day 12, Before” value [14] was 340 and the “Glucose, Day 21, Before” value [14] was 368.
With [O]=[Zn] [STZ + Zn, zinc oxide] the Brain nfk [1] was 150.59 ± 2.73^b, the “Kidney oct1” value [2] was 50.02 ± 2.05^d and the Brain ins (insulin) was 44.08 ± 3.31^c. For the same molecule, the ALP [5] was 453 ± 11^b U/L, the ALT [5] was 143 ± 9^b U/L and the AST [5] was 328 ± 17^a U/L. The Albumin [5] was 2.59 ± 0.06^b g/dL, the CK [5] was 6872 ± 1248^b U/L and the Creatinine [5] was 1.05 ± 0.07^b mg/dL. The Glucose [5] was 456 ± 13^ab mg/dL, the Insulin [5] was 20.9 ± 0.9^bc μU/mL and the K [5] was 5.53 ± 0.09^b mmol/L. The LDH [5] was 2564 ± 85^ab U/L, the Total protein [5] was 5.91 ± 0.07^b g/dL and the Urea [5] was 65.6 ± 1.0^b mg/dL. The Uric acid [5] was 6.49 ± 0.69^ab mg/dL, the “Brain Cr” value [6] was 9.05 ± 0.56^d ng/g and the “Serum Cr” value [6] was 33.65 ± 2.26^d mcg/g. The “Brain Tryptophan” value (Tryptophan) was 4.54 ± 0.23^d mcg/g, the “Initial BW” value [7] was 195.43 ± 7.63 g and the “BW Change” value [7] was −9.71 ± 4.03^bc %. For the same molecule, the “Final BW” value [7] was 175.71 ± 7.67^bc g, the “cerebral GLUT-1 expression” value (GLUT-1 [8]) was 46.82 ± 3.23^c and the “Kidney mrp2” value [10] was 148.73 ± 2.74^b. For the same molecule, the Kidney nfk [11] was 120.31 ± 1.65^b, the “cerebral GLUT-3 expression” value (GLUT-3 [12]) was 43.41 ± 3.53^c and the “Kidney oct2” value (OCT-2) was 51.38 ± 1.17^d. The “Glucose, Day 4, After” value [14] was 303, the “Glucose, Day 6, After” value [14] was 372 and the “Glucose, Day 12, After” value [14] was 412. For the same molecule, the “Glucose, Day 21, After” value [14] was 329, the “Glucose, Day 4, Before” value [14] was 457 and the “Glucose, Day 6, Before” value [14] was 350. The “Glucose, Day 12, Before” value [14] was 421 and the “Glucose, Day 21, Before” value [14] was 380.
In the case of chromium picolinate [CrPic], the “Serum Glucose at 0.5 hrs” value [4] is reported as 40.7 ± 5.2 mg/dL, the “Hippocampus Nrf2 Expression” value (Nrf2) is reported as 38.9 ± 3.6 % Control and the “Cerebellum GLUT-3 Expression” value (GLUT-3 [9]) is reported as 206.3 ± 6.4 % Control. The “Cortex GLUT-3 Expression” value (GLUT-3 [9]) was 319.5 ± 14.6 % Control, the “Hippocampus GLUT-3 Expression” value (GLUT-3 [9]) was 198.6 ± 8.9 % Control and the “Hippocampus GFAP Expression” value (GFAP) was 251.2 ± 9.1 % Control. For the same molecule, the “Hippocampus HNE Expression” value (HNE) was 162.5 ± 12.4 % Control, the “Cerebellum GLUT-1 Expression” value (GLUT-1 [13]) was 75.6 ± 7.6 % Control and the “Cortex GLUT-1 Expression” value (GLUT-1 [13]) was 122.8 ± 1.3 % Control. The “Hippocampus GLUT-1 Expression” value (GLUT-1 [13]) was 102.3 ± 5.5 % Control.
